One may read the IC50 as the concentration that gives 50% inhibition. Broadly, the inhibition in vivo is the share of the control response that was lost under treatment.

Sequence of G-protein coupled receptor 6 (P46095 whole entry): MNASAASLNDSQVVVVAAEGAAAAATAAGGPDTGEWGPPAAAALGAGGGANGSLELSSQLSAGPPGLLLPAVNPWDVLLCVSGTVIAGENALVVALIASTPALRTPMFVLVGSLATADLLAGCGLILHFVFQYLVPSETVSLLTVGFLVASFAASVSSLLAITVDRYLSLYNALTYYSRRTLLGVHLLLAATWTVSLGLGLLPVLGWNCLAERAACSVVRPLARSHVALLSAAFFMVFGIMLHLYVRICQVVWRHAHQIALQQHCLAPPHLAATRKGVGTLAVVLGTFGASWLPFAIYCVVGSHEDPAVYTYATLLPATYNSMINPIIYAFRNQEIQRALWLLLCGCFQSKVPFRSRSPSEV

One experiment addresses G-protein coupled receptor 6 (Homo sapiens, UniProt P46095). In words: Activity at GPR6 (unknown origin) expressed in CHOK1 cells assessed as inhibition of constitutive cAMP activity incubated for 45 mins by HTRF based cAMP detection assay. Type of experiment: functional, cell-based, CHO-K1.
Details: not given
On to `CC(C)Nc1nc2cnncc2nc1N1CCC(C(F)c2ccc(F)cc2F)CC1` (stereo not drawn), for which the IC50 amounted to 6 nM.

Consider `Fc1ccc(F)c(CN2CCN(c3nc4cnccc4nc3NC3CC3)CC2)c1`, for which the IC50 came to 120 nM. On to `COCCNc1nc2ccncc2nc1N1CCC(Oc2ccc(F)cc2F)CC1`, for which the IC50 stood at 670 nM. Still for that read-out and setting: for `Cc1nnc(Nc2nc3ccccc3nc2N2CCN(Cc3cc(Cl)ccc3Cl)CC2)nc1C` the value was 17800 nM; for `N#Cc1ccc2nc(NC3CC3)c(N3CCN(S(=O)(=O)c4ccccc4F)CC3)nc2c1`, 4590 nM; for `N#Cc1ccc2nc(Nc3ccon3)c(N3CCN(C(=O)c4ccc(Cl)cc4)CC3)nc2c1`, 15400 nM. Same read-out and setting: next, `O=C(c1cc2nc(NC3CC3)c(N3CCC([C@@H](F)c4ccc(F)cc4F)CC3)nc2cn1)N1CCC1F` (stereo partly drawn): 26 nM; `O=C(c1ccc(F)c(F)c1)C1CCN(c2nc3cnccc3nc2NC2CC2)CC1`: 8390 nM. Turning to `CN(C)C(=O)c1cc2nc(NC3CC3)c(N3CCC([C@H](F)c4ccc(F)cc4F)CC3)nc2cn1`, the IC50 came out at 10 nM. Same read-out and setting: for `N#Cc1ccc2nc(Nc3cccnc3)c(N3CCC(Cc4ccc(F)cc4F)CC3)nc2c1` the value was 390 nM; for `CC(C)Nc1nc2cnncc2nc1N1CCC([C@@H](F)c2ccc(F)cc2F)CC1`, 14 nM; for `Cc1ccc(S(=O)(=O)N2CCN(c3nc4cc(C#N)ccc4nc3NC3CC3)CC2)cc1`, 4740 nM. On to `Fc1cc2nc(NC3CC3)c(N3CCN(Cc4cc(Cl)ccc4Cl)CC3)nc2cc1F`, for which the IC50 was determined as 800 nM. Same read-out and setting: for `COc1ccc(CN2CCN(c3nc4c(C#N)nccc4nc3NC3CC3)CC2)c(F)c1` the value was 88 nM; for `Fc1ccc([C@@H](F)C2CCN(c3nc4cnccc4nc3NC3CC3)CC2)c(F)c1`, 24 nM; for `N#Cc1ccc2nc(NCCC(F)(F)F)c(N3CCN(Cc4ccc(F)cc4F)CC3)nc2c1`, 390 nM. For `O=C(c1c(F)cccc1F)C1CCN(c2nc3cnccc3nc2NC2CC2)CC1`, the IC50 is 2180 nM. On the same count and under the same terms, next, `O=C(c1nccc2nc(NC3CC3)c(N3CCC([C@H](F)c4ccc(F)cc4F)CC3)nc12)N1CCOCC1`: 6 nM; `Cc1cc2nc(NC3CC3)c(N3CCC(Cn4cc(Cl)ccc4=O)CC3)nc2cn1`: 770 nM; `Fc1ccc(CN2CCN(c3nc4ccncc4nc3NCC(F)F)CC2)c(F)c1`: 230 nM.

On to `N#Cc1cc2nc(NC3CC3)c(N3CCC([C@@H](F)c4ccc(F)cc4F)CC3)nc2cn1`, for which the IC50 turned out to be 17 nM. Still for that read-out and setting: next, `Cc1cc2nc(NC3CC3)c(N3CCC([C@H](F)c4cc(F)ccc4F)CC3)nc2cn1`: 11 nM; `CN(C)C(=O)c1cc2nc(NC3CC3)c(N3CCC(Oc4ccc(F)cc4F)CC3)nc2cn1`: 5 nM.

In the case of `Fc1ccc(OC2CCN(c3nc4ccncc4nc3NC3CCC3)CC2)c(F)c1`, the IC50 is 14 nM.

`Fc1ccc(F)c(OC2CCN(c3nc4cnccc4nc3NC3CC3)CC2)c1`: the 50% inhibitory concentration (IC50) came out at 1100 nM. Turning to `CN(C)C(=O)c1cc2nc(NC3CC3)c(N3CCN(C(=O)c4cc(F)ccc4Cl)CC3)nc2cn1`, the IC50 came out at 1570 nM. `Cc1nccc2nc(NC3CC3)c(N3CCC(Oc4ccc(F)cc4F)CC3)nc12`: the IC50 was 18 nM. `CC(=O)c1ccc(OC2CCN(c3nc4cnccc4nc3NC3CC3)CC2)cc1`: the IC50 worked out at 1740 nM.

Regarding `N#Cc1ccc2nc(NC3CC3)c(N3CCN(S(=O)(=O)c4ccc(Cl)cc4)CC3)nc2c1`, the IC50 was 570 nM.

Regarding `N#Cc1ccc2nc(NC3CC3)c(N3CCC(Cc4ccc(F)cc4F)CC3)nc2c1`, the IC50 was 64 nM. Still for that read-out and setting: for `COc1ccc2nc(N3CCN(Cc4cc(Cl)ccc4Cl)CC3)c(NC3CC3)nc2c1` the value was 3360 nM; for `C[C@@H](CO)Nc1nc2ccccc2nc1N1CCN(Cc2cc(Cl)ccc2Cl)CC1`, 1570 nM.

Turning to `CN(C)C(=O)c1cc2nc(NC3CC3)c(N3CCC([C@@H](F)c4ccc(F)cc4F)CC3)nc2cn1`, the IC50 came out at 8 nM. For `N#Cc1ccc2nc(N3CCC(C(F)c4ccc(F)cc4F)CC3)c(NC3CC3)nc2c1` (stereo not drawn), the IC50 was 29 nM. Consider `COc1ccc(C(=O)C2CCN(c3nc4cnncc4nc3NC(C)C)CC2)c(F)c1`, for which the IC50 came out at 54 nM.

As to `Fc1cnc(Cl)c(CN2CCN(c3nc4ccccc4nc3NC3CC3)CC2)c1`, the IC50 was 20400 nM. With `COc1ccc(CN2CCN(c3nc4cnc(N5CCOCC5)cc4nc3NC3CC3)CC2)c(F)c1`, the 50% inhibitory concentration (IC50) amounted to 92 nM. On to `COc1ccc(CC2CCN(c3nc4cnc(C#N)cc4nc3NC(C)C)CC2)c(F)c1`, for which the IC50 turned out to be 26 nM. Same read-out and setting: for `O=C(c1nccc2nc(NC3CC3)c(N3CCC([C@@H](F)c4ccc(F)cc4F)CC3)nc12)N1CCOCC1` the value was 7 nM. Same read-out and setting: for `Clc1ccc(OC2CCN(c3nc4cnccc4nc3NC3CC3)CC2)cc1` the value was 310 nM. On to `Fc1ccc(Cl)cc1C(F)(F)C1CCN(c2nc3cnccc3nc2NC2CC2)CC1`, for which the IC50 was 46 nM. The same measure, in the same setting: next, `CC(C)Nc1nc2cnncc2nc1N1CCC(Oc2ccc(C#N)cc2F)CC1`: 72 nM. On the same count and under the same terms, next, `Clc1ccccc1OC1CCN(c2nc3cnccc3nc2NC2CC2)CC1`: 1510 nM; `Fc1cc(Cl)ccc1OC1CCN(c2nc3cnncc3nc2NC2CC2)CC1`: 30 nM; `Fc1ccc(OC2CCN(c3nc4cc(Br)ccc4nc3NC3CC3)CC2)c(F)c1`: 1430 nM. On the same count and under the same terms, next, `Fc1ccc(CN2CCN(c3nc4cnncc4nc3NC3CC3)CC2)c(F)c1`: 260 nM; `CC(O)c1ccc(OC2CCN(c3nc4cnccc4nc3NC3CC3)CC2)cc1` (stereo not drawn): 6040 nM. On to `N#Cc1ccc2nc(NC3CC3)c(N3CCN(S(=O)(=O)c4ccc(OC(F)(F)F)cc4)CC3)nc2c1`, for which the IC50 is 4290 nM. The same measure, in the same setting: next, `CSc1ccc(OC2CCN(c3nc4cnncc4nc3NC3CC3)CC2)c(F)c1`: 14 nM; `N#Cc1ccc2nc(NCC(F)F)c(N3CCC(Cc4ccc(F)cc4F)CC3)nc2c1`: 71 nM; `CS(=O)(=O)c1ccc(C(=O)N2CCN(c3nc4ccccc4nc3NC3CC3)CC2)cc1`: 530 nM. Take `O=C(c1csc(Cl)c1)C1CCN(c2nc3cnccc3nc2NC2CC2)CC1`: the IC50 was determined as 4810 nM. For the molecule `Cc1c(Cl)cc(F)cc1S(=O)(=O)N1CCN(c2nc3cc(C#N)ccc3nc2NC2CC2)CC1`, the half-maximal inhibitory concentration (IC50) was 960 nM. Still for that read-out and setting: next, `N#Cc1nccc2nc(NC3CC3)c(N3CCN(Cc4ccc(F)cc4F)CC3)nc12`: 66 nM; `N#Cc1ccc(F)c(C(=O)C2CCN(c3nc4cnccc4nc3NC3CC3)CC2)c1`: 69 nM; `Cc1cc2nc(NC3CC3)c(N3CCC(Cc4ccc(F)cc4F)CC3)nc2cn1`: 20 nM. On to `COc1cc2nc(NC3CC3)c(N3CCC(Cc4ccc(F)cc4F)CC3)nc2cn1`, for which the IC50 is 29 nM. Same read-out and setting: for `CC(C)Nc1nc2cc(C#N)ncc2nc1N1CCC(C(=O)c2cc(F)cc(F)c2)CC1` the value was 28 nM; for `N#Cc1ccc(Cl)c(C(=O)C2CCN(c3nc4cnc(Cl)cc4nc3NC3CC3)CC2)c1`, 89 nM; for `Fc1cc(F)c(CN2CCN(c3nc4cnccc4nc3NC3CC3)CC2)cc1F`, 50 nM.

Take `N#Cc1ccc(OC2CCN(c3nc4cnccc4nc3NC3CC3)CC2)cc1`: the IC50 was found to be 1940 nM. On to `CC[C@@H](C)Nc1nc2cnncc2nc1N1CCC(Oc2ccc(OC)cc2F)CC1`, for which the IC50 was determined as 30 nM. Turning to `CC(C)Nc1nc2cnccc2nc1N1CCC(Oc2ccc(F)cc2F)CC1`, the IC50 amounted to 20 nM.

On to `CC(C)Nc1nc2cnncc2nc1N1CCC(Oc2ccc(OCF)cc2F)CC1`, for which the IC50 came to 8 nM. Still for that read-out and setting: for `N#Cc1ccc2nc(N3CCN(C(=O)c4ccc(Cl)cc4)CC3)c(NC3CC3)nc2c1` the value was 340 nM. On to `Cc1cc(CN2CCN(c3nc4ccccc4nc3NC3CC3)CC2)no1`, for which the IC50 was 105000 nM. The same measure, in the same setting: next, `COc1ccc(CC2CCN(c3nc4cnncc4nc3NC(C)C)CC2)c(F)c1`: 15 nM. Same read-out and setting: next, `O=C(c1c(Cl)ccc(F)c1F)C1CCN(c2nc3cnccc3nc2NC2CC2)CC1`: 3900 nM; `CC(C)Nc1cc(Cl)cc(C(=O)C2CCN(c3nc4ccc(C#N)cc4nc3NC(C)C)CC2)c1`: 276 nM. Take `Cc1cc(C(=O)N2CCN(c3nc4ccccc4nc3NC3CC3)CC2)ccc1Cl`: the IC50 came out at 720 nM.

As for `COc1cccc(OC2CCN(c3nc4cnncc4nc3NC(C)C)CC2)c1`, the IC50 was determined as 1000 nM. As to `N#Cc1cccc(OC2CCN(c3nc4cnccc4nc3NC3CC3)CC2)c1`, the IC50 was found to be 15400 nM. Still for that read-out and setting: next, `Cc1cc2nc(NC3CC3)c(N3CCC([C@@H](F)c4ccc(F)cc4F)CC3)nc2cn1`: 6 nM; `Fc1ccc(C(F)(F)C2CCN(c3nc4cnccc4nc3NC3CC3)CC2)c(F)c1`: 16 nM; `Clc1ccc(Cl)c(CN2CCN(c3nc4ccccc4nc3Nc3cnccn3)CC2)c1`: 2340 nM. `N#Cc1ccc2nc(NC3CC3)c(N3CCN(S(=O)(=O)c4ccccc4Br)CC3)nc2c1`: the half-inhibitory concentration (IC50) stood at 1850 nM.

The subject of the next experiment is Rattus norvegicus. Nature of the experiment: Reversal of haloperidol-induced catalepsy in Sprague-Dawley rat at 10 mg/kg, sc after 30 mins relative to control. Type of experiment: functional. As to conditions: 0.5 h.
Regarding `N#Cc1ccc2nc(NC3CC3)c(N3CCC(Cc4ccc(F)cc4F)CC3)nc2c1`, the inhibition in vivo at 10 mg/kg was found to be 36.9%.

The test system of another experiment is Rattus norvegicus. In words: Reversal of haloperidol-induced catalepsy in Sprague-Dawley rat at 10 mg/kg, sc after 120 mins relative to control. Type of experiment: functional. The settings on record: 2 h.
In the case of `N#Cc1ccc2nc(NC3CC3)c(N3CCC(Cc4ccc(F)cc4F)CC3)nc2c1`, the inhibition in vivo at 10 mg/kg amounted to 25.1%.

Values taken from ChEMBL document CHEMBL3714749, “Quinoxaline derivatives as gpr6 modulators” (2014).
